Entries after “also recorded” stand apart in the source; their conditions may differ. Where two headings read alike, the source gives them in different places.
Experiments:
Type in all cases: cell-based
[1] = biological target: T1, Btk phosphorylation in Ramos cells (Homo sapiens, UniProt Q06187); assay: Pulse chase western blotting assay for irreversibility / binding property; conditions: 100 nM for 45 mins, monitored 4, 6 and 8 h post removal
T1 construct: endogenous in cells; host or cells: Ramos cells (ATCC)
T1 sequence (Q06187 whole entry): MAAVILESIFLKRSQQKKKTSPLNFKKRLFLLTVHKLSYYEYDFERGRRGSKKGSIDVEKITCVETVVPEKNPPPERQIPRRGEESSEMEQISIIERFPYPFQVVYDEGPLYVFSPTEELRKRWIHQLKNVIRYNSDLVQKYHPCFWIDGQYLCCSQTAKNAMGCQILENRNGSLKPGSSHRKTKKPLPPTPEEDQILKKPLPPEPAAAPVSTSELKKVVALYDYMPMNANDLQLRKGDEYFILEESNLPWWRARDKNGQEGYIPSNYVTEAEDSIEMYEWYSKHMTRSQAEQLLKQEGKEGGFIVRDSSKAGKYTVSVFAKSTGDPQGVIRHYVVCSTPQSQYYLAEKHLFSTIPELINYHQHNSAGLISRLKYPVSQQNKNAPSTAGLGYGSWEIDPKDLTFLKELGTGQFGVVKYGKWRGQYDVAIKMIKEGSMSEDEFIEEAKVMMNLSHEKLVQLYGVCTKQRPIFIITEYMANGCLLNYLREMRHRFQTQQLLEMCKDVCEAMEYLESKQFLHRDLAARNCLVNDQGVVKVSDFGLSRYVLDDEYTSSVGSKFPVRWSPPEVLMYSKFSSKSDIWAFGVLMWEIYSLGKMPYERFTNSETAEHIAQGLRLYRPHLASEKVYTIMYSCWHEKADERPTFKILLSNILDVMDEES
Procedure: Ramos cells were treated with Compound I-1 at 100 nM for 45 min. Cells were then re-suspended in compound free media and stimulated with 6 μg/ml IgM at 0, 4, 6 or 8 hours after compound removal. Cells were then lysed after 30 mm IgM stimulation. West blotting analysis were then performed.
Ramos cells were treated with Compounds at 100 nM for 45 min. Cells were then re-suspended in compound free media and stimulated with 6 μg/ml anti-IgM at 0, 4, 6 or 8 hours after compound removal. Cells were then lysed after 30 mm anti-IgM stimulation. Western blotting analysis was then performed.

[2] = system: Stat5 phosphorylation in NK-92 cells; assay: Western blotting assay for Stat5; conditions: NK92, 1 hour, IL-2 stimulation, read-out: Stat5 inhibition
Procedure, shortened: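 NK-92 cells, maintained with IL-2, were pre-treated with compound for 1 h, then stimulated with IL-2 for 15 min. Lysates were western blotted for phospho- and total Jak3 and Stat5. IC50 came from densitometry of phospho-band intensity.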

[3] = biological target: T2, free Btk protein from Ramos cells (Homo sapiens, UniProt Q06187); assay: Btk target site occupancy ELISA assay; conditions: for IC50: ELISA
T2 construct: endogenous in cells; host or cells: Ramos cells (ATCC)
T2 sequence (Q06187 whole entry): as above
Procedure: (§1) Ramos cells were treated with Compound I-1 at indicated concentrations for 1 h, followed by stimulation with 6 μg/mL of IgM for 30 mm, and then lysed. Lysates were incubated with Compound I-21 (biotin labeled) at a final concentration of 1 μM in a PBS, 0.05% Tween-20, 1% BSA solution while shaking for 1 h at room temperature. Samples were transferred to a streptavidin-coated 96-well ELISA plate and mixed while shaking for 1 h at room temperature. The Btk antibody (BD 611116, 1:1000 dilution in PBS+0.05% Tween-20+0.5% BSA) was then applied and incubated for 1 h at room temperature. After wash, goat anti-mouse-HRP (Pierce 31432, 1:1000 dilution in PBS+0.05% Tween-20+0.5% BSA) was added and incubated for 1 h at room temperature. The ELISA was developed with addition of tetramethyl benzidine (TMB) followed by Stop Solution and read at OD 450 nm.
as §1, with “Compounds” for “Compound I-1”, “anti-IgM” for “IgM”, “diluted” for “dilution”, “tetramethylbenzidine” for “tetramethyl benzidine”

[4] = biological target: T3, Btk (Tyr223) phosphorylation in Ramos cells (Homo sapiens, UniProt Q06187); assay: Western blotting assay for Btk (Example 73); conditions: 45 min, 6 μg/mL anti-IgM, read-out: Btk Inhibition
T3 construct: endogenous in cells; host or cells: Ramos cells (ATCC)
T3 sequence (Q06187 whole entry): as above
Procedure, shortened: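 Ramos cells pre-treated with compound for 45 min at room temperature, then stimulated with 6 μg/mL anti-IgM for 30 min and lysed. Phospho-Btk (Tyr223) measured by Western blot band densitometry; IC50 fitted by non-linear regression.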

IC50 [2]: ≥ 400 nM | IC50 ([3]; 1 h, read-out: Btk Occupancy Assay (IC50)): ≤ 10 nM | OD 450 (average) ([3]; Compound I-1 0.2 nM): 0.1686 | free Btk ([3]; Compound I-1 0.2 nM): 2414 pg | OD 450 (average) ([3]; Compound I-1 0.7 nM): 0.1811 | free Btk ([3]; Compound I-1 0.7 nM): 2592 pg | OD 450 (average) ([3]; Compound I-1 3 nM): 0.1219 | free Btk ([3]; Compound I-1 3 nM): 1747 pg | OD 450 (average) ([3]; Compound I-1 12 nM): −0.0161 | free Btk ([3]; Compound I-1 12 nM): -224 pg | OD 450 (average) ([3]; Compound I-1 47 nM): 0.0114 | free Btk ([3]; Compound I-1 47 nM): 168 pg | OD 450 (average) ([3]; Compound I-1 188 nM): −0.0207 | free Btk ([3]; Compound I-1 188 nM): -290 pg | OD 450 (average) ([3]; Compound I-1 750 nM): −0.0456 | free Btk ([3]; Compound I-1 750 nM): -646 pg | OD 450 (average) ([3]; Compound I-1 3000 nM): −0.0487 | free Btk ([3]; Compound I-1 3000 nM): -689 pg | IC50 ([3]; read-out: BTK target site occupancy IC50): 0.5 nM | IC50 [4]: ≤ 10 nM
SMILES: C=CC(=O)Nc1cccc(Oc2nc(Nc3ccc(N4CCN(C)CC4)cc3)ncc2OC)c1 [Compound I-1, N-(3-(5-methoxy-2-(4-(4-methylpiperazin-1-yl)phenylamino)pyrimidin-4-yloxy)phenyl)acrylamide]
inhibition of BTK phosphorylation after compound removal (irreversibility) [1]: remains inhibited up to 8 his; also recorded: long term effect of the inhibition was observed after compounds removal up to 8 hours; also recorded: remains inhibited up to 8 hrs; also recorded: irreversibly inhibited the BTK phosphorylation; also recorded: inhibited the Btk phosphorylation in Ramos cells after 8 hours of removal | occupancy of the Btk proteins ([3]; increasing concentrations): dose-dependent occupancy of the BTK proteins correlates with its inhibitory activity of BTK kinase
